Molecules are shown by their SMILES.

T1 sequence (P35918 20-1345): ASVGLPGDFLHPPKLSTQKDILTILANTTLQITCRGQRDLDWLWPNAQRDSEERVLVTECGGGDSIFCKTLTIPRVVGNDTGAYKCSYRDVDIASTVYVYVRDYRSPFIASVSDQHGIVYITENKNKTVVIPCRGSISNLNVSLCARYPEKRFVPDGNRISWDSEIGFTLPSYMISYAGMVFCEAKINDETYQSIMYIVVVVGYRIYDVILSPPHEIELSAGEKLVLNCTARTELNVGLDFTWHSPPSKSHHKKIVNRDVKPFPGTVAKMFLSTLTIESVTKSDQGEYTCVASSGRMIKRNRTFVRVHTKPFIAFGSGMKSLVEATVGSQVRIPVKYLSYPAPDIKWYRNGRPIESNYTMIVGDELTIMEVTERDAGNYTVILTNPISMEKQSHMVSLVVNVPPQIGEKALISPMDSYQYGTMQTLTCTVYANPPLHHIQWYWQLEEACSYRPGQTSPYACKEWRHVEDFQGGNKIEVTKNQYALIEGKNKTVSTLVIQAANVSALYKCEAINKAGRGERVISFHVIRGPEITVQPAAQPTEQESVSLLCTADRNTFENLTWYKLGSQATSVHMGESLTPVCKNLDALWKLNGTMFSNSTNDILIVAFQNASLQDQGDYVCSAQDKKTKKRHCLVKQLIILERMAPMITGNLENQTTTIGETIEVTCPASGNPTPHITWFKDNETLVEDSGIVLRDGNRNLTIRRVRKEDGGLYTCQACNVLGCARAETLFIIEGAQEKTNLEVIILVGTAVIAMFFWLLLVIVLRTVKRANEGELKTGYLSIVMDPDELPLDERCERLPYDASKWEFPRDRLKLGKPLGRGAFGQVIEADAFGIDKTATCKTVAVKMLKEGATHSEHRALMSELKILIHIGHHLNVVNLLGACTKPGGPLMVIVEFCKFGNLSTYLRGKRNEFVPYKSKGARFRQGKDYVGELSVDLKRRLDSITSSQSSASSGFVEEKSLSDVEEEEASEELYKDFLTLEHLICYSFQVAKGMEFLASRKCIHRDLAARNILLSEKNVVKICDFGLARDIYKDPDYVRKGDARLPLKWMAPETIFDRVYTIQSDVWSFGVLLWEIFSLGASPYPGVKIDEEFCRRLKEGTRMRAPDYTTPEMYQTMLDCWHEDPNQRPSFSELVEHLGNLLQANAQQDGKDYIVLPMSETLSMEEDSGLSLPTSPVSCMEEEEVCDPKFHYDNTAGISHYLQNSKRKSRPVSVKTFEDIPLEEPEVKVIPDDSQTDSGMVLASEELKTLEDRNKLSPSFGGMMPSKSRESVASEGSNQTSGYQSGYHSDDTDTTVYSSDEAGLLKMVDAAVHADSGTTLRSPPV

For one experiment, the system named is Calu-6. Nature of the experiment: Tumor xenograft growth inhibition, Calu-6 (lung). It is filed as in vivo, human. The conditions noted are these: 20 mg/kg/day. An excerpt:
The ability of one of the compounds of the present invention, leflunomide (Compound 40), to inhibit ovarian, melanoma, prostate, lung and mammary tumor cell lines established as SC xenografts was examined. […]
The tumor cells were implanted subcutaneously into the indicated strains of mice. Treatment was initiated on day 1 post implantation unless otherwise indicated (e.g. treatment of the SCID mouse related to the A375 melanoma cell line began on Day 9). Eight (8) to ten (10) mice comprised each test group.
Animals. Female athymic mice (BALB/c, nu/nu), BALB/c mice, Wistar rats and Fisher 344 rats were obtained from Simonsen Laboratories (Gilroy, Calif.). Female A/I mice were obtained from Jackson Laboratory (Bar Harbor, Me.). DA rats were obtained from B&K Universal, Inc. (Fremont, Calif.). Athymic R/Nu rats, DBA/2N mice, and BALB/c mice were obtained from Harlan Sprague Dawley (Indianapolis, Ind.). Female C57BL/6 mice were obtained from Taconic (Germantown, N.Y.). All animals were maintained under clean-room conditions in Micro-isolator cages with Alpha-dri bedding. They received sterile rodent chow and water ad libitum.
Subcutaneous Xenograft Model. Cell lines were grown in appropriate medium as described (See Section 6). Cells were harvested at or near confluency with 0.05% Trypsin-EDTA and pelleted at 450×g for 10 min. Pellets were resuspended in sterile PBS or media (without FBS) to a suitable concentration indicated in the Figure legends and the cells were implanted into the hindflank of mice. Tumor growth was measured over 3 to 6 weeks using venier calipers tumor volumes were calculated as a product of length x width x height unless otherwise indicated. P values were calculated using the Students' t-test. su101 in 50-100 uL excipient (dimethylsulfoxide, PBTE, PBTE6C:D5W, or PBTE:D5W) was delivered by IP injection at concentrations indicated in the Figure legends.
`N#CC(C#N)=Cc1cc(O)c(O)c(I)c1` [Compound 2, (E)-2-cyano-3-(3-iodo-4,5-hydroxyphenyl)acrylonitrile]: the “inhibition, CALU-6 (in words)” value is recorded as “no detectable inhibition”.

With `CC(C)(C)c1cc(/C=C(/C#N)c2[nH]nc(N)c2C#N)cc(C(C)(C)C)c1O` [Compound 4, (E)-2-[(3-amino-4-cyano)pyrazo-5-yl]-3-(3,5-di-t-butyl-4-hydroxyphenyl)acrylonitrile], the “inhibition, CALU-6 (in words)” value is “no significant inhibition”.

Turning to `N#C/C(=C\c1cc(O)c(O)c(Br)c1)S(=O)(=O)/C(C#N)=C/c1cc(O)c(O)c(Br)c1` [Compound 12, (E)-2-[1-cyano-2-(5-bromo-3,4-dihydroxyphenyl)ethenylsulfonyl]-3-(3-bromo-4,5-dihydroxyphenyl)acrylonitrile], the “inhibition, CALU-6 (in words)” value is on record as “no detectable inhibition”.

For `c1ccc(-c2cnc3cc4ccccc4cc3n2)cc1` [Compound 23, 2-phenyl-1,4-diaza-anthracene], the “inhibition, CALU-6” value was 41%.

The same experiment, now with this note: 40 mg/kg/day.
On to `N#CC(C#N)=Cc1cc(O)c(O)c(I)c1` [Compound 2, (E)-2-cyano-3-(3-iodo-4,5-hydroxyphenyl)acrylonitrile], for which the “inhibition, CALU-6 (in words)” value is given as “no detectable inhibition”.

Another experiment addresses T1, FLK-1 receptor (Mus musculus, UniProt P35918).
T1 construct: expressed in transfected cells; host or cells: NIH3T3C7#3 cells (FLK-1 infected NIH3T3)
Nature of the experiment: ELISA assay to measure kinase activity of FLK-1 receptor in FLK-1/NIH cells.
Conditions: not given
Type of experiment: cell-based, murine. As to the method: ELISA Assay To Measure Kinase Activity Of FLK-1 Receptor In FLK-1/NIH Cells
An ELISA assay was conducted to measure the kinase activity of the FLK-1 receptor and more specifically, the inhibition or activiation of protein tyrosine kinase activity on the FLK-1 receptor.
k. NIH3T3C7#3 Cells (FLK-1 infected cells);
Protocol. The following protocol was used to conduct the ELISA Assay:
1. Coat Corning 96-well elisa plates with 1.0 ug per well Cappel Anti-rabbit IgG antibody in 0.1M Na2CO3 pH 9.6. Bring final volume to 150 ul per well. Coat plates overnight at 4° C. Plates can be kept up to two weeks when stored at 4° C.
2. Grow cells in 30 ml of Growth media 9DMEM. 2.0 mM L-Glutamine, 10% FBS) until confluent in 150 cm tissue culture dishes at 37° C., 5% CO2.
3. Harvest cells by tyrpsination and seed in Corning 25850 polystyrene 96-well roundbottom cell plates, 25.000 cells/well in 200 uL of growth media.
4. Grow cells at least one day at 37° C., 5% CO2.
5. Wash cells with D-PBS 1X.
6. Add 200 ul/well of starvation media (DMEM, 2.0 mM l-Glutamine, 0.1% FBS). Incubate overnight at 37° C., 5% CO2.
7. Dilute Compounds/Extracts 1:20 in polyproplyene 96 well plates using starvation media. Dilute dimethylsulfoxide 1:20 for use in control wells.
8. Remove starvation media from 96 well cell culture plates and add 162 ul of fresh starvation media to each well.
9. Add 18 ul of 1:20 diluted Compound/Extract dilution (from step #7) to each well plus the 1:20 dimethylsulfoxide dilution to the control wells (+/-VEGF), for a final dilution of 1:200 after cell stimulation. Final dimethylsulfoxide is 0.5%. Incubate the plate at 37° C., 5% CO2 for two hours.
10. Remove unbound antibody from Elisa plates by inverting plate to remove liquid. Wash 3 times with TBSW+0.5% Ethanolamine, pH 7.0. Pat the plate on a paper towel to remove excess liquid and bubbles.
11. Block plates with TBSW+0.5% Ethanolamine, pH 7.0. 150 ul per well. Incubate plate thirty minutes while shaking on a microtiter plate shaker.
12. Wash plate 3 times as described in step 10.
13. Add 0.5 ug/well affinity purified anti-flk-1 polyclonal rabbit antiserum. Bring final volume to 150 ul/well with TBSW+0.5k Ethanolamine pH 7.0. Incubate plate for thirty minutes while shaking.
14. Add 180 μl starvation medium to the cells and stimulate cells with 20 ul/well 10.0 mM Sodium Ortho Vanadate and 500 ng/ml VEGF (resulting in a final concentration of 1.0 mM Sodium Ortho Vanadate and 50 ng/ml VEGF per well) for eight minutes at 37° C., 5% CO2. Negative control wells receive only starvation medium.
15. After eight minutes, media are removed from the cells and washed one time with 200 ul/well PBS.
16. Lyse cells in 150 ul/well HNTG while shaking at room temperature for five minutes. HNTG formulation includes sodium ortho vanadate, sodium pyro phosphate and EDTA.
17. Wash Elisa plate three times as described in step 10.
18. Transfer cell lysates from the cell plate to elisa plate and incubate while shaking for two hours. To transfer cell lysate pipette up and down while scrapping the wells.
19. Wash plate three times as described in step 10.
20. Incubate Elisa plate with 0.02 ug/well UB40 in TBSW+05% ethanolamine. Bring final volume to 150 ul/well. Incubate while shaking for 30 minutes.
21. Wash plate three times as described in step 10.
22. Incubate elisa plate with 1:10,000 diluted EIA grade Goat anti-mouse IgG conjugated horseradish peroxidase in TBSW+0.5% ethanolamine, pH 7.0. Bring final volume to 150 ul/well. Incubate while shaking for thirty minutes.
23. Wash plate as described in step 10.
24. Add 100 ul of ABTS/H202 solution to well. Incubate ten minutes while shaking.
25. Add 100 ul of 0.2M HCL for 0.1M HCL final to stop the colordevelopment reaction. Shake 1 minute at room temperature. Remove bubbles with slow stream of air and read the ELISA plate in an ELISA plate reader at 410 nm.
Compound `CC(C)(C)c1cc(/C=C(/C#N)c2[nH]nc(N)c2C#N)cc(C(C)(C)C)c1O` [Compound 4, (E)-2-[(3-amino-4-cyano)pyrazo-5-yl]-3-(3,5-di-t-butyl-4-hydroxyphenyl)acrylonitrile] showed a half-maximal inhibitory concentration (IC50) of 8.9 µM.

With `N#C/C(=C\c1cc(O)c(O)c(I)c1)C(=O)NCc1ccccc1` [Compound 6, (E)-2-(benzylaminocarbonyl)-3-(3-iodo-4,5-dihydroxyphenyl)acrylonitrile], the IC50 was 21.2 µM.

`N#C/C(=C\c1ccc(O)c(O)c1)C(=O)NCCCCNC(=O)/C(C#N)=C/c1ccc(O)c(O)c1` [Compound 8, (E,E)-2-[[4-[[1-cyano-2-(3,4-dihydroxyphenyl)ethenyl]carbonylamino]-n-butyl]aminocarbonyl]-3-(3,4-dihydroxyphenyl)acrylonitrile] had a concentration for half-maximal inhibition (IC50) of 10.8 µM.

In the case of `N#C/C(=C\c1ccc2[nH]ccc2c1)C(=O)c1ccc(O)c(O)c1` [Compound 10, (E)-3-(indol-5-yl)-2-(3,4-dihydroxyphenylcarbonyl)acrylonitrile], the half-maximal inhibitory concentration (IC50) came to 17.7 µM.

The compound `CC(C)c1cc(/C=C(\C#N)C(=S)NCCCc2ccccc2)cc(C(C)C)c1O` [Compound 11, (E)-2-[3-phenyl-n-propylaminothiocarbonyl]-3-(3,5-diisopropyl-4-hydroxyphenyl)acrylonitrile] registered an IC50 of 9.8 µM.

`N#C/C(=C\c1cc(O)c(O)c(Br)c1)S(=O)(=O)/C(C#N)=C/c1cc(O)c(O)c(Br)c1` [Compound 12, (E)-2-[1-cyano-2-(5-bromo-3,4-dihydroxyphenyl)ethenylsulfonyl]-3-(3-bromo-4,5-dihydroxyphenyl)acrylonitrile] gave an IC50 of 7.1 µM.

`Cc1cc2ncc(Nc3ccc(I)cc3)nc2cc1C` [Compound 13, 2-[(4-iodophenyl)amino]-6,7-dimethyl quinoxaline] returned a concentration for half-maximal inhibition (IC50) of 10.4 µM.

In turn, `Cc1cc2ncc(-c3ccc(O)c(O)c3)nc2cc1C` [Compound 14, 2-(3,4-dihydroxyphenyl) -6,7-dimethylquinoxaline] gave an IC50 of 9.3 µM.

Compound `Cc1ccc2ncnc(Nc3cccc(O)c3)c2c1` [Compound 16, 4-(3-hydroxyphenylamino)-6-methylquinazoline] returned an IC50 of 35.1 µM.

Consider `Cc1cc2ncc(Nc3ccc(Cl)c(Cl)c3)nc2cc1C` [Compound 17, 2-(3,4-dichlorophenylamino)-6,7-dimethylquinoxaline], for which the half-inhibitory concentration (IC50) came out at 15 µM.

As for `Oc1cccc(Nc2ncnc3ccccc23)c1` [Compound 18, 4-(3-hydroxyphenylamino)-quinazoline], it took 34.6 µM to reach half-maximal inhibition (IC50).

As to `CCCNc1nc2ccccc2nc1Cl` [Compound 19, 2-(n-propylamino)-3-chloroquinoxaline], the half-maximal inhibitory concentration (IC50) stood at 25.6 µM.

Turning to `Cc1ccc(Sc2ncnc3ccc(C)cc23)cc1` [Compound 20], the half-inhibitory concentration (IC50) was found to be 17.8 µM.

Compound `COc1cc2nc(Cl)nc(Nc3cccc(Cl)c3)c2cc1OC` [Compound 21, 2-chloro-4-(3-chlorophenylamino)-6,7-dimethoxyquinazoline] had an IC50 of 9.9 µM.

`N#CC(C#N)=NNc1cccc(Cl)c1` [Compound 22] gave an IC50 of 2.3 µM.

Consider `c1ccc(-c2cnc3cc4ccccc4cc3n2)cc1` [Compound 23, 2-phenyl-1,4-diaza-anthracene], for which the IC50 was 4.4 µM.

For the compound `COC(=O)c1ccc(NCc2cc(O)ccc2O)cc1` [Compound 24, N-(2,5-dihydroxylbenzyl)-4-methoxycarbonylaniline], the IC50 turned out to be 28.9 µM.

Compound `N#CC(C(=O)Nc1cccc(C(F)(F)F)c1)C(=S)Nc1ccccc1Cl` (stereo not drawn) [Compound 25, N-(2-chlorophenyl)-2-cyano-2-(N-3-trifluorophenylamino-carbonyl)-thioacetamide] displayed a half-maximal inhibitory concentration (IC50) of 8.5 µM.

With `N#CCS(=O)(=O)/C(C#N)=C/c1cc(O)c(O)c(Br)c1` [Compound 26, (E)-2-cyanomethylsufonyl-3-(3-bromo-4,5-dihydroxyphenyl)acrylonitrile], the 50% inhibitory concentration (IC50) came out at 11 µM.

Compound `CC1c2nc3ccccc3c(=O)n2C(c2ccc(O)cc2)N1Cc1ccccc1` (stereo not drawn) [Compound 27] registered an IC50 of 3.4 µM.

On to `Cc1cc2ncc(Nc3cccc(Cl)c3)nc2cc1C` [Compound 28, 2-(3-chlorophenylamino)-6,7-dimethylquinoxaline], for which the IC50 is 16 µM.

Still in this experiment, the particulars now being: FLK-1R ELISA, VEGF-stimulated FLK-1/NIH cells.
Compound `N#C/C(=C\c1cc(O)c(O)c(I)c1)C(=O)NCCCc1ccccc1` [Compound 3] yielded a 50% inhibitory concentration (IC50) of 4.9 µM.

Compound `N#C/C(=C\c1ccc(O)c(O)c1)C(=O)NCCNC(=O)/C(C#N)=C/c1ccc(O)c(O)c1` [Compound 7] displayed an IC50 of 37.5 µM.

In the case of `N#C/C(=C\c1ccc(O)c(O)c1)S(=O)(=O)/C(C#N)=C/c1ccc(O)c(O)c1` [Compound 9], 27.4 µM corresponded to half-maximal inhibition (IC50).

Still in this experiment, the particulars now being: FLK-1R ELISA, VEGF-stimulated FLK-1/NIH cells; read-out: IC50.
As for `CC(C)(C)c1cc(/C=C(\C#N)C(N)=S)cc(C(C)(C)C)c1O` [Compound 1, (E)-2-aminothiocarbonyl-3 (3,5-di-t-butyl-4-hydroxyphenyl)acrylonitrile], the IC50 was 0.8 µM.
